Molecules are shown by their SMILES.

One experiment deals with Puccinia recondita. The experiment is described as follows: foliar fungal disease control on plants, Puccinia recondita on wheat. Type of experiment: in vivo. Conditions: 100 ppm foliar spray plus root drench ca. 40 ppm a.i./dry soil, one or two days before inoculation. The method, then:
(§1) The technique employed was as follows.
(§2) The plants were grown in John Innes Potting Compost (No. 1 or 2) in 4 cm diameter minipots. The test compounds were formulated either by bead milling with aqueous Dispersol T or as a solution in acetone or acetone/ethanol which was diluted to the required concentration immediately before use. For the foliage diseases, the formulations (100 ppm active ingredient) were sprayed on to the foliage and applied to the roots of the plants in the soil. The sprays were applied to maximum retention and the root drenches to a final concentration equivalent to approximately 40 ppm a.i./dry soil. Tween 20, to give a final concentration of 0.05%, was added when the sprays were applied to cereals.
(§3) For most of the tests the compound was applied to the soil (roots) and to the foliage (by spraying) one or two days before the plant was inoculated with the disease. An exception was the test on Erysiphe graminis in which the plants were inoculated 24 hours before treatment. Foliar pathogens were applied by spray as spore suspensions onto the leaves of test plants. After inoculation, the plants were put into an appropriate environment to allow infection to proceed and then incubated until the disease was ready for assessment. The period between inoculation and assessment varied from four to fourteen days according to the disease and environment.
(§4) The disease control was recorded by the following grading: […]

The next experiment deals with Erysiphe graminis. The experiment is described as follows: foliar fungal disease control on plants, Erysiphe graminis on barley. Type of experiment: in vivo. Conditions: 100 ppm foliar spray plus root drench ca. 40 ppm a.i./dry soil; inoculated 24 hours before treatment. The method, then: as §1, §2, §3, §4
The subject of a further experiment is Venturia inaequalis. The experiment is described as follows: foliar fungal disease control on plants, Venturia inaequalis on apple. Type of experiment: in vivo. Conditions: 100 ppm foliar spray plus root drench ca. 40 ppm a.i./dry soil, one or two days before inoculation. The procedure:
as §1, §2, §3, §4

The next experiment deals with Pyricularia oryzae. Type of experiment: in vivo. Conditions: 100 ppm foliar spray plus root drench ca. 40 ppm a.i./dry soil, one or two days before inoculation.
A further experiment deals with Cercospora arachidicola. The experiment is described as follows: foliar fungal disease control on plants, Cercospora arachidicola on peanut. Type of experiment: in vivo. Conditions: 100 ppm foliar spray plus root drench ca. 40 ppm a.i./dry soil, one or two days before inoculation. The procedure:
as §1, §2, §3, §4

The test system of a further experiment is Plasmopara viticola. The experiment is described as follows: foliar fungal disease control on plants, Plasmopara viticola on vine. Type of experiment: in vivo. Conditions: 100 ppm foliar spray plus root drench ca. 40 ppm a.i./dry soil, one or two days before inoculation. The procedure: as §1, §2, §3, §4
The subject of a further experiment is Phytophthora infestans. Type of experiment: in vivo. Conditions: 100 ppm foliar spray plus root drench ca. 40 ppm a.i./dry soil, one or two days before inoculation.
The next experiment concerns Heliothis virescens. The experiment is described as follows: insecticidal test, tobacco budworm - larvae. Type of experiment: in vivo. Conditions: in Gossypium hirsutum, 72 h, read-out: grading of mortality, HV. The method, then: (§5) The activity of the compounds was determined using a variety of insect, mite and nematode pests. The compounds were used in the form of liquid preparations containing 500 parts per million (ppm) by weight of the compound except for the test on Meloidogyne incognita when liquid preparations of 250 ppm by weight were used. The preparations were made by dissolving the compounds in acetone and diluting the solutions with water containing 0.1% by weight of a wetting agent sold under the trade name "SYNPERONIC" NX until the liquid preparations contained the required concentration of the product. "SYNPERONIC" is a Registered Trade Mark.
(§6) The test procedure adopted with regard to each pest was basically the same and comprised supporting a number of the pests on a medium which was usually a host plant or a foodstuff on which the pests feed, and treating either or both the pests and the medium with the preparations. The mortality of the pests was then assessed at periods usually varying from one to seven days after the treatment.
(§7) The results of the tests are given in Table IX for each of the products as a grading of mortality designated as 9, 5 or 0 where 9 indicates 80-100% mortality (70-100% root-knot reduction as compared with untreated plants for Meloidogyne incognita), 5 indicates 50-79% mortality (50-69% root knot reduction for Meloidogyne incognita) and 0 indicates less than 50% mortality (root-knot reduction for Meloidogyne incognita).
(§8) In Table IX the pest organism used in designated by a letter code and the pests species, the support medium or food, and the type and duration of test is given in Table VII.

Another experiment relates to Meloidogyne incognita. The experiment is described as follows: nematode test, tomato root knot eelworm - larvae, semi in-vitro. Conditions: 250 ppm, residual, 7 days. Type of experiment: in vivo. The procedure:
as §5, §6, §7, §8

In experiment [1] the test system is Tetranychus urticae (spider mites - adult). The experiment is described as follows: whole plant or invertebrate. Conditions: in Phaseolus vulgaris, 72 h, read-out: grading of mortality, TUa.
Experiment [2] relates to Tetranyhus urticae (spider mites - ova). The experiment is described as follows: whole plant or invertebrate. Conditions: 144 h, read-out: grading of mortality, TUe.
Another experiment relates to Myzus persicae. The experiment is described as follows: whole plant or invertebrate. Conditions: in Brassica rapa, 72 h, read-out: grading of mortality, MP.
The next experiment deals with Musca domestica. The experiment is described as follows: whole plant or invertebrate. Conditions: 24 h, read-out: grading of mortality, MD.
For a further experiment, the system named is Blattella germanica. The experiment is described as follows: whole plant or invertebrate. Conditions: 72 h, read-out: grading of mortality, BG.
In another experiment the test system is Diabrotica balteata. The experiment is described as follows: whole plant or invertebrate. Conditions: in Zea mays, 72 h, read-out: grading of mortality, DB.
The subject of another experiment is Nephotettix cincticeps. The experiment is described as follows: whole plant or invertebrate. Conditions: in Oryza sativa, 72 h, read-out: grading of mortality, NC.

For orientation: mortality means the percentage killed. Consider `CO/C=C(/C(=O)OC)n1cccc1/C=C/C(=O)OC`, for which the “disease control grading, PUCCINIA RECONDITA (Wheat)” value in the experiment on Puccinia recondita was 4. The “disease control grading, ERYSIPHE GRAMINIS (Barley)” value in the experiment with Erysiphe graminis turned out to be 4. The “disease control grading, VENTURIA INAEQUALIS (Apple)” value with Venturia inaequalis came out at 4. In the experiment on Pyricularia oryzae, the “disease control grading, P[…] (Rice)” value was 4. In addition, in the experiment with Cercospora arachidicola, the “disease control grading, CERCOSPCRA ARACHIDICOLA (Peanut)” value is reported as 2 (6-25% of disease on untreated plants). Also, in the experiment on Plasmopara viticola, the “disease control grading, […] (Vine)” value is 4. For the same molecule, the “disease control grading, PH[…] (TOMATOES)” value in the experiment on Phytophthora infestans was found to be 4. For the same molecule, the mortality at 500 ppm in the experiment with Heliothis virescens was < 50%; in experiment [1], 80 to 100%; in experiment [2], < 50%; in the experiment with Myzus persicae it was < 50%; in the experiment on Musca domestica, < 50%; in the experiment with Blattella germanica, 80 to 100%. Moreover, the mortality at 500 ppm with Diabrotica balteata was < 50%; with Nephotettix cincticeps it was 50 to 79%. Also, the “grading of root-knot reduction, MI” value in the experiment on Meloidogyne incognita was 0 (less than 50% mortality (root-knot reduction for Meloidogyne incognita)).
